These results are taken from ChEMBL document CHEMBL1201862, “PubChem BioAssay data set” (2004).

Experiment [1] in a line: Trypanosoma cruzi growth suppression in host cells – NIH3T3 host cells, beta-gal luminescence, confirmation (AID 2044).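 Note: intracellular parasites grown in NIH/3T3 mouse fibroblasts as host cells; luminescent beta-galactosidase reporter signal from transgenic T. cruzi replicating inside host cells; inhibitors lower the luminescence signal.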 It is filed as functional, cell-based.
Experiment [2] can be described thus: Luminescent dose response cell-based high throughput screening assay for inhibitors of the Janus kinase 2 mutant JAK2V617F. [Related pubchem assays: 1446 (Primary screen.), 1521 (Confirmation assay.), 1486 (Counter screen.)]. The format is functional.
Another experiment deals with T1, Protein RecA (Mycobacterium tuberculosis, UniProt P9WHJ3).
T1 sequence (P9WHJ3 whole entry): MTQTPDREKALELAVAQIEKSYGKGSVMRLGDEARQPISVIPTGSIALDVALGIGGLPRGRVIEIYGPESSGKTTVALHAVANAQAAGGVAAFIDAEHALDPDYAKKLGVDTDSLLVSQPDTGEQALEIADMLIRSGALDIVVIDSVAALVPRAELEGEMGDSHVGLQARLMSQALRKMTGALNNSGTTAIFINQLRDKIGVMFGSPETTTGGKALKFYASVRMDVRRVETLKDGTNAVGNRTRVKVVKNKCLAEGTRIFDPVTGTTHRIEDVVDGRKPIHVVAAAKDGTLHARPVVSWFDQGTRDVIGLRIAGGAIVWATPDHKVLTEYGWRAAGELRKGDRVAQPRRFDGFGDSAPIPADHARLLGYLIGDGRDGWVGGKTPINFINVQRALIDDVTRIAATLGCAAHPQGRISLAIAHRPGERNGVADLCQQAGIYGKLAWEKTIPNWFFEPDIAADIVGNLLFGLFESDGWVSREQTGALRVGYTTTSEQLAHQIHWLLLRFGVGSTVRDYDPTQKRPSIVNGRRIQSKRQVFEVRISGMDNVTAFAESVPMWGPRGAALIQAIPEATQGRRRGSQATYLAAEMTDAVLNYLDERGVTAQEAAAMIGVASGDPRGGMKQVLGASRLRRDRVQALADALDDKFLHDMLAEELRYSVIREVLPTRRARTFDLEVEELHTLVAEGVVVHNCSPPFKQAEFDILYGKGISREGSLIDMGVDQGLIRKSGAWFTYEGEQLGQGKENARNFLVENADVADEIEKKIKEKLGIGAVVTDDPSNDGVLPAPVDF
The experiment is described as follows: Fluorescence Cell-Free Homogeneous Dose Retest to Identify Inhibitors of RecA-Intein Splicing Activity. [Related pubchem assays (depositor defined):AID2097, AID2223, AID489010, AID492950]. The format is functional.

The target in experiment [3] is T2, Tyrosine-protein phosphatase non-receptor type 7 (Homo sapiens, UniProt P35236).
T2 sequence (P35236 whole entry): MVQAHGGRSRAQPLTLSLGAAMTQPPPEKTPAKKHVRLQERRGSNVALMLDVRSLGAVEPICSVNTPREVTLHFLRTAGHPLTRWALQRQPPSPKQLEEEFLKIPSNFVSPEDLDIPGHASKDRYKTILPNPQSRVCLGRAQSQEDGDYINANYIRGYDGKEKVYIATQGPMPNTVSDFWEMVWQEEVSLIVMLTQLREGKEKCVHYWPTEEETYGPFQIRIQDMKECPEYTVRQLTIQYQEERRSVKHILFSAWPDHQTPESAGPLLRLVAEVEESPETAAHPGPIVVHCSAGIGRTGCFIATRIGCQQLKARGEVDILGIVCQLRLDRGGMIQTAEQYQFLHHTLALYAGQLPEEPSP
It is filed as functional.

For experiment [4], the target named is T3, Tyrosine-protein phosphatase non-receptor type 22 (Homo sapiens, UniProt Q9Y2R2).
T3 sequence (Q9Y2R2 whole entry): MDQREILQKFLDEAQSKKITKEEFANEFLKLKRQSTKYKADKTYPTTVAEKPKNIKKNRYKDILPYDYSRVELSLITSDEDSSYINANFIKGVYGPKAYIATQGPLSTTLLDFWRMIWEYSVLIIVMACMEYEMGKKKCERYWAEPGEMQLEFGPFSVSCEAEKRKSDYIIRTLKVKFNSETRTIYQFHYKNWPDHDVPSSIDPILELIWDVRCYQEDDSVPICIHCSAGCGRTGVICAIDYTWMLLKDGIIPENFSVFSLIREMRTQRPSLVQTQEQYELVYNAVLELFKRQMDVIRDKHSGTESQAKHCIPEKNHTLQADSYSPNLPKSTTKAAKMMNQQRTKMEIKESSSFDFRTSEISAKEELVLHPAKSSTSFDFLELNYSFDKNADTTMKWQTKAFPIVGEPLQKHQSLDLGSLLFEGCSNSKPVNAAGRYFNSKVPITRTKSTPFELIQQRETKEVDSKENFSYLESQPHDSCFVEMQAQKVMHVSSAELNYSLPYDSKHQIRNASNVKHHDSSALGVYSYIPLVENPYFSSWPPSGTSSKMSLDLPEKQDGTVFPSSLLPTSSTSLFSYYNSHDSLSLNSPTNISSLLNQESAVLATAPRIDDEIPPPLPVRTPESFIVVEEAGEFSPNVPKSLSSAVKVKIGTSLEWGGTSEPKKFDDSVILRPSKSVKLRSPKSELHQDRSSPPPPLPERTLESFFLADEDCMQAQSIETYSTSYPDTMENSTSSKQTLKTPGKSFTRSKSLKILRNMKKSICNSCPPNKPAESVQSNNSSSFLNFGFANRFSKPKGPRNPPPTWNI
As to the kind of experiment: PubChem AID 2135.

Broadly, the EC50 is the concentration at which the effect is half-maximal. Broadly, the IC50 is the midpoint of a concentration-inhibition curve.

Structures are written as SMILES. Active and inactive are the calls of the source.

In the case of `COc1ccc(Nc2ccc3c(c2)=NC2(CCCCC2)[N+]=3[O-])cc1`, the results for the EC50 (in experiment [1]; at Protein RecA) were 3.4 µM (active) and 4.39 µM (active), respectively. The IC50 in experiment [2] is 0.824 µM (active).

In the case of `COc1ccc(/C=C2\SC(=S)N(CCC(=O)Nc3ccc(C(=O)O)cc3)C2=O)cc1OC`, the IC50 in experiment [3] was 3.78 µM (active); in experiment [4], 2.96 µM (active).
